Data: BigSolDB 2.1

NNC(=O)c1ccncc1
solubility (mole fraction)
Conditions	283.15 K	288.15 K	293.15 K	298.15 K	303.15 K	308.15 K	313.15 K	318.15 K	323.15 K
in DMF	0.023	0.027	0.031	0.035	0.0412	0.0458	0.0511	0.0567	0.0649
in acetonitrile	0.000725	0.000912	0.00109	0.00141	0.00169	0.002	0.00241	0.00288	0.00331
in ethanol	0.00266	0.00318	0.00384	0.00465	0.00549	0.00646	0.00754	0.0087	0.00996
in ethyl acetate	0.000976	0.0012	0.00136	0.0016	0.00195	0.00234	0.00279	0.00331	0.00374
in isopropanol	0.0021	0.00253	0.00314	0.00373	0.00453	0.00558	0.00651	0.00804	0.00949
in methanol	0.00574	0.0067	0.00797	0.00961	0.0112	0.0131	0.0151	0.0179	0.0211
in n-propanol	0.00219	0.00264	0.00329	0.00419	0.00495	0.0059	0.00705	0.0084	0.00983
in water	0.0106	0.0134	0.0159	0.0198	0.024	0.0296	0.0354	0.0421	0.0517
